Measurements from patent US20050288255A1, “Modulation of lysophosphatidylcholine and treatment of diet-induced conditions” (priority 2004, published 2005).

What was measured:
Type in all cases: cell-based
3T3L1 adipocytes = assay: Insulin-stimulated [3H]deoxyglucose uptake in differentiated 3T3L1 adipocytes with varying LPC; details: 100 nM insulin, 30 min, under reduced levels of lysophosphatidylcholine, FIG. 5(c)
Protocol: (§1) Effects of LPC on glucose metabolism were assessed using (a) HepG2 cells as a model of liver cells, (b) differentiated L6 myotubes as a model of skeletal muscle cells and (c) differentiated 3T3L1 cells as a model of adipocytes. To assess usage of glucose for glycogen biosynthesis, cells were incubated in Krebs Ringer Hepes medium with 5 mM [^14C]glucose, 100 nM insulin, and varying concentrations of LPC. At the end of the incubation period, the cells were washed and detached from the plates with 30% KOH. Carrier glycogen was then added to the cell lysate at a concentration of 40 mg/ml and then boiled for 30 min. Glycogen was precipitated from the solution by the addition of 800 μl 95% ice-cold ethanol and centrifuged at 1000×g. The pellet was re-suspended in buffer, and an aliquot of the sample was counted in a scintillation counter to determine the amount of [^14C]glucose converted to glycogen. Glucose metabolism by differentiated 3T3L1 cells was assessed based on cellular uptake of [^3H]deoxyglucose. The 3T3L1 cells were incubated in Krebs Ringer Hepes medium with 5 mM [^3H]deoxyglucose, 100 nM insulin, and varying concentration of LPC. Glucose uptake was assessed based on cellular accumulation of [^3H]deoxyglucose after a 30 min incubation period.

HepG2 cells = assay: Insulin-stimulated [14C]glucose conversion to glycogen in HepG2 cells with varying LPC; details: 100 nM insulin, under reduced levels of lysophosphatidylcholine, FIG. 5(a)
Protocol: as §1

L6 myotube = assay: Insulin-stimulated [14C]glucose conversion to glycogen in differentiated L6 myotubes with varying LPC; details: 100 nM insulin, under reduced levels of lysophosphatidylcholine, FIG. 5(b)
Protocol: as §1

Measured: insulin-stimulated glucose metabolism

lysophosphatidylcholine
increased: all assays above
